Source: patent US6593306B1, “Methods for modulation and inhibition of telomerase” (Board of Regents, The University of Texas Systems, priority 1995, dated 2003)
pIC50: −log10 of the molar value. Entries after “also recorded” stand apart in the source; their conditions may differ.

Experiments:
[1] = target: T1, human 293 cell telomerase (Homo sapiens, UniProt O14746); assay: Conventional telomerase assay (32P-dGTP as radiolabel substrate); type: biochemical; conditions: for Inhibition of 293 Telomerase, Conventional Assay *dGTP: up to 2 mM
T1 construct: with 20 μl of S100 enzyme extract; endogenous in cells; host or cells: 293 cells (transformed human embryonic kidney), S100 extract
T1 sequence (O14746 whole entry): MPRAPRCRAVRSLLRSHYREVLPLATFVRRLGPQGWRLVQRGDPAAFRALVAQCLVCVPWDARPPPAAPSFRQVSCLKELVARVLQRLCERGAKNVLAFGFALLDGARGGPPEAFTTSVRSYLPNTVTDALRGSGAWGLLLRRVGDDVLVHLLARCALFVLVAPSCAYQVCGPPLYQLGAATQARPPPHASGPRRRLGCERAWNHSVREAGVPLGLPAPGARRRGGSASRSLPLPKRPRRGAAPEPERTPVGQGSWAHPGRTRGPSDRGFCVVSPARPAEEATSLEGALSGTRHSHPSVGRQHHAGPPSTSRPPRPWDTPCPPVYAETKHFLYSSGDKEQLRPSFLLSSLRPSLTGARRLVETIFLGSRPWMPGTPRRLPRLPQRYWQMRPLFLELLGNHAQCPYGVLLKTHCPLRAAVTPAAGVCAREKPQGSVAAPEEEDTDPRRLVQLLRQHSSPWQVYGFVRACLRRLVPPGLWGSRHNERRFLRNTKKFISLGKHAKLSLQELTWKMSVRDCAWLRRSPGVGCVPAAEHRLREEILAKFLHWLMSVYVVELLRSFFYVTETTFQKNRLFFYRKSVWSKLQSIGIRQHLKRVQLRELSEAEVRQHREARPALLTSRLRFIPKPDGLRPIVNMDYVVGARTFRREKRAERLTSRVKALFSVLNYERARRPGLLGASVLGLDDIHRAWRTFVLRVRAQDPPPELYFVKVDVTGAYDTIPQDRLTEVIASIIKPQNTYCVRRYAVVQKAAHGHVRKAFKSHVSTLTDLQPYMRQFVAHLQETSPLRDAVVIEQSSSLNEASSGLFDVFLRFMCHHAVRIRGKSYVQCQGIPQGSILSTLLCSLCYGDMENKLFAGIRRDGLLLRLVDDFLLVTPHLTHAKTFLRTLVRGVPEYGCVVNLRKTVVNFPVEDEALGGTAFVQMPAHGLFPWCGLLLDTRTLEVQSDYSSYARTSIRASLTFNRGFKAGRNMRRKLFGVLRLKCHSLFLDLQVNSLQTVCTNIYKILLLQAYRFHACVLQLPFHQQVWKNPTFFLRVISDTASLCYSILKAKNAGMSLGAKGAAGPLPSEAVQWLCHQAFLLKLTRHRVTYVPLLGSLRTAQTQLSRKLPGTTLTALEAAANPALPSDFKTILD
T1 sequence (O60832 whole entry partner): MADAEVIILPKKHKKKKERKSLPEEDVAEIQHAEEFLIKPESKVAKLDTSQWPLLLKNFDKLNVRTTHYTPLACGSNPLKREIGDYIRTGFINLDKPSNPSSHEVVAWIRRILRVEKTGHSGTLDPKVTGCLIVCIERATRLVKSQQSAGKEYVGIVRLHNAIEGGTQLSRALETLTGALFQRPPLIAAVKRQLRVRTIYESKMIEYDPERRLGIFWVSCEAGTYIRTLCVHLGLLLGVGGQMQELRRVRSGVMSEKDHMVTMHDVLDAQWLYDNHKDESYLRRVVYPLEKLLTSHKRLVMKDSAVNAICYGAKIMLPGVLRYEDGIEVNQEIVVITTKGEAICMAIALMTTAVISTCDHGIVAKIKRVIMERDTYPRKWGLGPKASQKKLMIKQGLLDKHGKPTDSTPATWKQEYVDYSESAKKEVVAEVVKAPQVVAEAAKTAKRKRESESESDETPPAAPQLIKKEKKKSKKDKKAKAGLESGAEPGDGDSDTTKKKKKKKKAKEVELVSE
T1 sequence (Q9NPE3 whole entry partner): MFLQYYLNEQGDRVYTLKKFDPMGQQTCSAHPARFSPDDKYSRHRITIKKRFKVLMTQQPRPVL
T1 sequence (Q9NX24 whole entry partner): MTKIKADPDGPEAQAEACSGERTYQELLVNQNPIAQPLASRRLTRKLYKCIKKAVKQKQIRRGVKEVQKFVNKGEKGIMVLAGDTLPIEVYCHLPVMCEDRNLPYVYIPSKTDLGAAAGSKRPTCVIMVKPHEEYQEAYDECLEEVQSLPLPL
T1 sequence (Q9NY12 whole entry partner): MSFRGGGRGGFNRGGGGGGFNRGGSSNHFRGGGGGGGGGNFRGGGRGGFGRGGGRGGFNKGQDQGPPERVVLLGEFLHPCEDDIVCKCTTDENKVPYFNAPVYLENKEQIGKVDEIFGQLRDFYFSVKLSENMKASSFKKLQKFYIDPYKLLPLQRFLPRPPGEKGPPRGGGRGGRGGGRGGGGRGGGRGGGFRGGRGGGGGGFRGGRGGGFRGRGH
Protocol: Telomerase was prepared from transformed human embryonic kidney 293 cell line. Human embryonic kidney 293 cells were grown in Joklik's modified MEM niedium (Sigma, St Louis, Mo.) supplemented with 5% fetal bovine serum at 37° C. in a humidified atmosphere with 5% CO2. The cells were subcultured at 1-2×10^5 cells/ml twice a week. When the cells grew to approximately 1×10^6 cells/ml, the cells (˜2×10^9 cells) were centrifuged and transferred into polypropylene centrifuge (50 ml) tubes and kept on ice. The cells were then centrifuged in a (Beckman GS-6R) centrifuge at 1200 RPM for 10 minutes at 4° C., and resuspended in PBS. The washed cells were resuspended in 15 ml Hypobuffer Mix (10 mM HEPES, pH 8.0, 3 mM KCl, 1 mM MgCl2, 1 mM dithiothreitol, 1 μM leupeptin, 0.1 mM PMSF, 10 μM pepstatin, 0.83 μg/ml chymostatin, 0.83 μg/ml antipain, and 43.2 units/ml RNase Guard) and centrifuged. The cell pellets were resuspended in 0.75×volumes Hypobuffer [Hypobuffer Mix+40 units/ml RNase Guard (Pharmacia, N.J.) to allow the cells to swell. The cell suspensions were homogenized to allow the telomerase to “leak” into the cytosolic fraction. The lysate was then poured into new, autoclaved, 3 ml polyallomer ultracentrifuge tubes and centrifuged at 100,000×g for 1 hour at 4° C. A top lipid layer was carefully removed and discarded, and the supernatant was collected. 1/50 of the volume of 5 M NaCl was added to the clear supernatant fluid to achieve a final concentration of 0.1 M. Sterile glycerol was added until the final glycerol concentration was 20%. The enzyme solution was aliquoted into Eppendorf tubes and quickly frozen in liquid nitrogen and stored at −70° C.
The assay is based on the ability of the telomerase enzyme in the S100 fractions to recognize an 18-base DNA primer with the DNA sequence (TTAGGG)3. DNA polymerization initiates from the 3′-OH group of the oligonucleotide. By reading from its complementary internal RNA template, telomerase adds a repeated set of 5′-TTAGGG-3′ to the original 18-base primer. Non-synchronous “starts” and “terminations” among the different enzyme complexes result in a degenerative set of different length DNA primers occurring in 6-base increments. Incorporation of [α-^32P]dGTP at the guanine positions of the 5′-TTAGGG-3′ sequence allows the newly synthesized DNA fragments to be visualized by autoradiography. The resulting image forms the characteristic “ladder” structure that is used to identify telomerase activity. The images are scanned using a phosphoimager or laser densitometer (Molecular Dynamics, Sunnyvale, Calif.). Comparisons of the total volumes under the corresponding peaks are used to quantitate the total amount of [α-^32P] incorporated in the primer extension reaction.
The telomerase assay was initiated by mixing 20 μl of 2×reaction mix (100 mM Tris-OAc, pH 8.5, 100 mM KOAc, 10 mM β-mercaptoethanol, 2 mM spermidine, 2 mM MgCl2, 2 mM dATP, 2 mM dTTP, 2 μM oligo primer, potential inhibitors of interest at the appropriate concentration, and 50 μCi [α^32-P]dGTP) with 20 μl of S100 enzyme extract. The reaction mixture was then incubated at 30° C. for 1 hour. The reaction was stopped by incubating sequentially with 50 μl of the stop solution (10 mM Tris pH 7.5, 20 mM EDTA, 0.1 mg/ml RNase A) and 50 μl of deproteinase solution (10 mM Tris pH 7.5, 0.5% SDS, 0.3 mg/ml Proteinase K). The mixture was extracted with 50% phenol/50% chloroform (v/v). The DNA was then precipitated by adding 2.5×volumes of cold EtOH and letting it stand overnight at −70° C. The DNAs were separated on an 8% polyacrylamide/7M urea denaturing gel at 1600 V for 1.5 hours. The gel was dried and exposed to Kodak XAR-5 film to gel in −70° C. Typical autoradiographic exposures required 3-14 days.

human telomerase = target: T2, human telomerase (Homo sapiens, UniProt O14746); assay: Cell-free telomerase inhibition, conventional or modified assay not stated; type: biochemical
T2 construct: telomerase in S100 extracts of transformed human fetal kidney tumor 293 cells (a processive telomerase); endogenous in cells; host or cells: human cells, (S100 extract)
T2 sequence (O14746 whole entry): as the sequence (O14746 whole entry) above
T2 sequence (O60832 whole entry partner): as the sequence (O60832 whole entry partner) above
T2 sequence (Q9NPE3 whole entry partner): as the sequence (Q9NPE3 whole entry partner) above
T2 sequence (Q9NX24 whole entry partner): as the sequence (Q9NX24 whole entry partner) above
T2 sequence (Q9NY12 whole entry partner): as the sequence (Q9NY12 whole entry partner) above
Protocol: Selected nucleoside triphosphates were tested in one or both of the “conventional” or “modified” telomerase assays described in Methods using the human processive and the CHO non-processive telomerases. Initially, three chain-terminators were selected: 2′,3′-dideoxythymidine triphosphate (ddTTP), 3′-fluoro-2′,3′-dideoxythymidine triphosphate (F-ddTTP), and 3′-azido-2′-, 3′-dideoxythymidine triphosphate (AZ-ddTTP) as prototype agents to investigate whether they could inhibit telomerase activity. The three compounds are dTTP analogs without a 3′-OH group for subsequent chain elongation. They may either incorporate into the telomere sequence and terminate further chain elongation or compete directly with dTTP for the substrate binding site in the telomerase reaction. In either case, telomerase activity is inhibited.

[2] = tested on: human colon carcinoma HT29 cells; assay: Growth inhibition (MTT), HT29 cells; type: cell-based; conditions: HT-29, 144 h, 6 days
Protocol: (§1) Exponentially growing cells (1-2×10^3 cells, unless specified otherwise) in 0.1 ml medium were seeded on day 0 in a 96-well microtiter plate. On day 1, 0.1 ml aliquots of medium containing graded concentrations of test analogs were added in duplicate to the cell plates. After incubation at 37° C. in a humidified incubator for 6 days, the plates were centrifuged briefly and 100 μl of the growth medium was removed. Cell cultures were incubated with 50 μl of 3-(4,5-dimethylthiazol-2-yl)-2,5-diphenyl-tetrazolium bromide, (MTT) at a concentration of 1 mg/ml in Dulbecco's phosphate buffered saline (PBS)) for 4 hr at 37° C. The resulting purple formazan precipitate was solubilized with 200 μl of 0.04 N HCl in isopropyl alcohol. Absorbance was monitored in a BioRad Model 3550 Microplate Reader at a test wavelength of 570 nm and a reference wavelength of 630 nm. The absorbance was transferred to a PC 486 computer. The IC50 values were determined by a computer program (EZ-ED50) that fits all the data to the following four-parameter logistic equation: [formula]
(§2) where Amax is the absorbance of control cells, Amin is the absorbance of cells in the presence of highest agent concentration, Y is the observed absorbance, X is the agent concentration, IC50 is the concentration of agent that inhibits the cell growth by 50% of control cells (based on the absorbance) and n is the slope of the curve.
(§3) This is due to the extracellular dephosphorylation of the mono-, di-, or triphosphates by […] or 5′-nucleotidase back to the nucleoside. With this in mind, the inventors used only nucleosides rather than nucleoside triphosphates in these studies. Cultured tumor cells were incubated with selected nucleosides at graded concentrations for 6 days and the growth inhibition was determined by the standard MTT assay.

[3] = tested on: transformed human embryonic kidney 293 cells; assay: Growth inhibition (MTT), 293 cells; type: cell-based; conditions: HEK293, 144 h, 6 days
Protocol: as §1, §2, §3

Compound	pIC50 [2]	pIC50 [3]	further results
5-Allylamino-2′-Deoxyuridine-5′-Triphosphate [NA021]	–	–	% of Control ([1]; 0.125 mM): 51%; % of Control ([1]; 0.25 mM): 70%; % of Control ([1]; 0.5 mM): 43%; % of Control ([1]; 1.0 mM): 33%; % of Control ([1]; 2.0 mM): 30%; % of Control ([1]; 10 mM (so in the source)): 100%; pIC50 ([1]; 293 cell telomerase): ~3.30; Inhibition of 293 Telomerase, Conventional Assay *dGTP [1]: concentration dependent inhibition; also recorded: the telomerase activity is weak)
Cc1cn([C@H]2C[C@H](O)[C@@H](COP(=O)(O)OP(=O)(O)OP(=O)(O)O)O2)c(=O)[nH]c1=S [4-thiothymidine triphosphate]	–	–	inhibition of human telomerase activity (human telomerase; 1 mM): completely
Nc1ncnc2c1c(I)cn2[C@H]1C[C@H](O)[C@@H](CO)O1 [FS004, 7-Iodo-7-Deaza-2′-Deoxyadenosine]	5.73	6.50	–
N#Cc1cn([C@H]2C[C@H](O)[C@@H](CO)O2)c2ncnc(N)c12 [FS005, 7-Cyano-7-Deaza-2′-Deoxyadenosine]	4.29	4.74	–
Nc1ncnc2c1c(I)nn2[C@H]1C[C@H](O)[C@@H](CO)O1 [FS015, 7-Iodo-7-Deaza-8-Aza-2′-Deoxyadenosine]	5.09	5.72	–
Nc1ncnc2c1c(Cl)cn2[C@H]1C[C@H](O)[C@@H](CO)O1 [FS017, 7-Chloro-7-Deaza-2′-Deoxyadenosine]	4.81	5.48	–
Nc1ncnc2c1c(Br)cn2[C@H]1C[C@H](O)[C@@H](CO)O1 [FS018, 7-Bromo-7-Deaza-2′-Deoxyadenosine]	6.02	5.94	–
Nc1nc2c(c(Cl)cn2[C@H]2C[C@H](O)[C@@H](CO)O2)c(=O)[nH]1 [FS019, 7-Chloro-7-Deaza-2′-Deoxyguanosine]	3.96	3.63	–
Nc1nc2c(c(Br)cn2[C@H]2C[C@H](O)[C@@H](CO)O2)c(=O)[nH]1 [FS020, 7-Bromo-7-Deaza-2′-Deoxyguanosine]	3.77	3.74	–
Nc1nc2c(c(I)cn2[C@H]2C[C@H](O)[C@@H](CO)O2)c(=O)[nH]1 [FS021, 7-Iodo-7-Deaza-2′-Deoxyguanosine]	4.10	4.20	–
Cc1cn([C@H]2C[C@H](O)[C@@H](CO)O2)c2nc(N)[nH]c(=O)c12 [FS022, 7-Methyl-7-Deaza-2′-Deoxyguanosine]	3.71	3.31	–
Cc1cn([C@H]2C[C@H](O)[C@@H](CO)O2)c2ncnc(N)c12 [FS024, 7-Methyl-7-Deaza-2′-Deoxyadenosine]	4.00	3.96	–
Cc1cn([C@H]2CC[C@@H](COP(=O)(O)OP(=O)(O)OP(=O)(O)O)O2)c(=O)[nH]c1=O [NA001, 2′,3′-Dideoxythymidine-5′-Triphosphate]	–	–	pIC50 ([1]; 293 cells telomerase, competing dTTP 1-2 mM, inhibitor 0 to 2 mM): ~3.30
Nc1nc2c(ncn2[C@@H]2O[C@H](COP(=O)(O)OP(=O)(O)CP(=O)(O)O)[C@@H](O)[C@H]2O)c(=O)[nH]1 [NA011, Guanosine-5′-β,γ-Methylene Triphosphate]	–	–	% of Control ([1]; 0.125 mM): 82%; % of Control ([1]; 0.25 mM): 63%; % of Control ([1]; 0.5 mM): 86%; % of Control ([1]; 1.0 mM): 70%; % of Control ([1]; 2.0 mM): 65%; Inhibition of 293 Telomerase, Conventional Assay *dGTP [1]: inactive; also recorded: No Inhibition (up to 2 mM)
Nc1nc2c(ncn2[C@H]2C[C@H](O)[C@@H](COP(=O)(O)OP(=O)(O)CP(=O)(O)O)O2)c(=O)[nH]1 [NA014, 2′-Deoxyguanosine-5′-β,γ-Methylene Triphosphate]	–	–	pIC50 (human telomerase; Summary values, assay variant not stated, read-out: IC50): 3.99; remaining activity at 125 µM ([1]; 0.125 mM, read-out: % of Control): 60%; remaining activity at 250 µM ([1]; 0.25 mM, read-out: % of Control): 38%; remaining activity at 500 µM ([1]; 0.5 mM, read-out: % of Control): 42%; remaining activity at 1000 µM ([1]; 1.0 mM, read-out: % of Control): 40%; remaining activity at 2000 µM ([1]; 2.0 mM, read-out: % of Control): 28%; pIC50 ([1]; 293 cell telomerase): > 3.90
Nc1nc2c(ncn2[C@H]2C[C@H](O)[C@@H](COP(O)(O)=S)O2)c(=O)[nH]1 [NA015, 2′-Deoxyguanosine-5′-Phosphorothioate]	–	–	Inhibition of 293 Telomerase, Conventional Assay *dGTP [1]: No Inhibition (up to 2 mM)
Nc1ncnc2c1ccn2[C@H]1C[C@H](O)[C@@H](CO)O1 [NA024, 7-Deaza-2′-Deoxyadenosine]	3.83	3.27	–
Nc1nc2c(ccn2[C@H]2C[C@H](O)[C@@H](CO)O2)c(=O)[nH]1 [NA025, 7-Deaza-2′-Deoxyguanosine]	3.99	3.89	–
Cn1c(N)nc2c(ccn2[C@H]2C[C@H](O)[C@@H](CO)O2)c1=S [NA027, 1-Methyl-6-Thio-7-Deaza-2′-Deoxyguanosine]	3.51	3.79	–
